ChEMBL document CHEMBL1201862, “PubChem BioAssay data set” (2004)
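Tested at 5 concentrations; 48 h exposure; 96-well plates; endpoints linearly interpolated, else capped at highest concentration. GI50 is the concentration that inhibits growth by half.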 Active and inactive are the calls of the source. Cut-off read from the data, not from the text of the source: active = GI50 up to about 1.1 µM and inactive = higher. Where a SMILES comes first, the peptide text is derived from it. The star is where a group is joined. Cbz = O=C(OCc1ccccc1)*

Legend:
Experiment in all cases: growth of human tumour cells (NCI), 48 h
786-0 = tested on: 786-0
ACHN = tested on: ACHN
CAKI-1 = tested on: CAKI-1
HCT-116 = tested on: HCT-116
HOP-62 = tested on: HOP-62
HT-29 = tested on: HT-29
KM12 = tested on: KM12
LOX IMVI = tested on: LOX IMVI
Malme-3M = tested on: Malme-3M
NCI-H23 = tested on: NCI-H23
NCI-H460 = tested on: NCI-H460
OVCAR-3 = tested on: OVCAR-3
RPMI-8226 = tested on: RPMI-8226
SF-295 = tested on: SF-295
SK-MEL-28 = tested on: SK-MEL-28
SNB-75 = tested on: SNB-75
UACC-257 = tested on: UACC-257
UACC-62 = tested on: UACC-62
RXF 393 = tested on: RXF 393

Measured: GI50

CSc1nc(NC2OC(COC(C)=O)C(OC(C)=O)C(OC(C)=O)C2OC(C)=O)c(-c2csc(N)n2)c(=O)n1C (centres undefined)
inactive: 786-0 18.5 µM | ACHN 31.5 µM | CAKI-1 31.3 µM | HCT-116 31 µM | HOP-62 24.2 µM | HT-29 > 100 µM | KM12 > 100 µM | LOX IMVI 93.3 µM | Malme-3M 28.9 µM | NCI-H23 39.3 µM | NCI-H460 39.1 µM | OVCAR-3 54 µM | RPMI-8226 > 100 µM | SF-295 33.6 µM | SK-MEL-28 37.7 µM | SNB-75 18 µM | UACC-257 32.9 µM | UACC-62 26.1 µM

COC(=O)C(=O)C(C#N)c1cccc2ccccc12 (centres undefined)
inactive: 786-0 > 100 µM | ACHN > 100 µM | CAKI-1 > 100 µM | HCT-116 > 100 µM | HOP-62 > 100 µM | HT-29 > 100 µM | KM12 22.9 µM | LOX IMVI > 100 µM | Malme-3M > 100 µM | NCI-H23 > 100 µM | OVCAR-3 > 100 µM | RPMI-8226 > 100 µM | SF-295 > 100 µM | SK-MEL-28 > 100 µM | SNB-75 97.3 µM | UACC-257 > 100 µM | UACC-62 > 100 µM

ONc1ncnc2[nH]cnc12
inactive: 786-0 > 100 µM | ACHN > 100 µM | CAKI-1 > 100 µM | HCT-116 > 100 µM | HOP-62 > 100 µM | HT-29 > 100 µM | KM12 > 100 µM | Malme-3M > 100 µM | NCI-H23 > 100 µM | NCI-H460 > 100 µM | OVCAR-3 > 100 µM | RPMI-8226 58.2 µM | SF-295 > 100 µM | SK-MEL-28 > 100 µM | SNB-75 > 100 µM | UACC-257 > 100 µM | UACC-62 > 100 µM

Cc1c2ccncc2c(C)c2c1[nH]c1ccc(Cl)cc12
inactive: ACHN 1.26 µM | HOP-62 3.85 µM | HT-29 2.2 µM | KM12 1.86 µM | LOX IMVI 1.55 µM | Malme-3M 5.68 µM | NCI-H23 3.56 µM | NCI-H460 1.54 µM | OVCAR-3 2.2 µM | RPMI-8226 1.59 µM | RXF 393 4.58 µM | SK-MEL-28 5.69 µM | SNB-75 3.55 µM | UACC-62 3.37 µM
active: 786-0 1.07 µM | HCT-116 1.07 µM

COc1ccc(C2CC(=O)c3c(O)cc(O)cc3O2)cc1O (centres undefined)
inactive: 786-0 > 100 µM | ACHN > 100 µM | CAKI-1 > 100 µM | HCT-116 > 100 µM | HOP-62 > 100 µM | HT-29 > 100 µM | KM12 > 100 µM | LOX IMVI > 100 µM | Malme-3M > 100 µM | NCI-H23 > 100 µM | NCI-H460 > 100 µM | OVCAR-3 > 100 µM | RPMI-8226 78 µM | SF-295 > 100 µM | SK-MEL-28 > 100 µM | SNB-75 53.8 µM | UACC-257 > 100 µM | UACC-62 > 100 µM

CCOC(=O)CCC(NC(=O)C(CC(=O)OC)NC(=O)OCc1ccccc1)C(=O)NC(CC(=O)OC)C(=O)NC(CCC(=O)OCC)C(=O)NC(CC(=O)OC)C(=O)NC(CCC(=O)OCC)C(=O)NC(CC(=O)OCC)C(=O)OCC (centres undefined) (Cbz-D(OMe)E(OEt)D(OMe)E(OEt)D(OMe)E(OEt)D(OEt)-OEt; configuration not given here)
inactive: 786-0 > 100 µM | ACHN > 100 µM | HCT-116 > 100 µM | HOP-62 > 100 µM | HT-29 > 100 µM | LOX IMVI > 100 µM | Malme-3M > 100 µM | NCI-H23 > 100 µM | NCI-H460 > 100 µM | OVCAR-3 > 100 µM | RPMI-8226 > 100 µM | UACC-257 > 100 µM | UACC-62 > 100 µM
